{"source": "paper PMC5218480", "about": "(PLoS ONE, 2017)", "test_system": "MV-4-11 cells", "experiment": "Gene expression microarray analysis (Affymetrix PrimeView) and GSEA", "type": "cell-based, human", "design": "RFU PODN (11730768_x_at) / Fold change /veh PODN (11730768_x_at) / RFU LINC00158 (11744669_a_at) / Fold change /veh LINC00158 (11744669_a_at) / RFU DUSP10 (11751237_a_at) / Fold change /veh DUSP10 (11751237_a_at) / RFU ID3 (11757404_x_at) / Fold change /veh ID3 (11757404_x_at) / RFU PLEKHG5 (11737974_s_at) / Fold change /veh PLEKHG5 (11737974_s_at) / RFU LRRC4B (11730491_at) / Fold change /veh LRRC4B (11730491_at) / RFU GIMAP4 (11747438_a_at) / Fold change /veh GIMAP4 (11747438_a_at) / RFU KRT8 (11758183_x_at) / Fold change /veh KRT8 (11758183_x_at) / RFU CNN1 (11734310_a_at) / Fold change /veh CNN1 (11734310_a_at) / RFU VPS37D (11726825_at) / Fold change /veh VPS37D (11726825_at) / RFU C10orf10 (11716522_x_at) / Fold change /veh C10orf10 (11716522_x_at) / RFU KIR2DL2 /// KIR2DL4 /// KIR2DL5A /// KIR2DL5B /// KIR2DS1 /// KIR2DS2 /// KIR2DS3 /// KIR2DS4 /// KIR3DL3 /// KIR3DL3 /// KIR3DS1 (11738374_at) / Fold change /veh KIR2DL2 /// KIR2DL4 /// KIR2DL5A /// KIR2DL5B /// KIR2DS1 /// KIR2DS2 /// KIR2DS3 /// KIR2DS4 /// KIR3DL3 /// KIR3DL3 /// KIR3DS1 (11738374_at) / RFU C1QL1 (11718748_at) / Fold change /veh C1QL1 (11718748_at) / RFU TMPRSS4 (11747572_a_at) / Fold change /veh TMPRSS4 (11747572_a_at) / RFU HAMP (11756126_x_at) / Fold change /veh HAMP (11756126_x_at) / RFU RNFT2 (11725882_a_at) / Fold change /veh RNFT2 (11725882_a_at) / RFU NR4A2 (11747474_a_at) / Fold change /veh NR4A2 (11747474_a_at) / RFU ABCC12 (11746883_a_at) / Fold change /veh ABCC12 (11746883_a_at) / RFU TMEM136 (11760407_x_at) / Fold change /veh TMEM136 (11760407_x_at) / RFU CLDN22 /// WWC2 (11732394_at) / Fold change /veh CLDN22 /// WWC2 (11732394_at) / RFU HLA-DPB1 (11760878_x_at) / Fold change /veh HLA-DPB1 (11760878_x_at) / RFU SPINT1 (11716480_a_at) / Fold change /veh SPINT1 (11716480_a_at) / RFU GAP43 (11754022_s_at) / Fold change /veh GAP43 (11754022_s_at) / RFU A4GNT (11735810_at) / Fold change /veh A4GNT (11735810_at) / RFU PRB3 (11715151_x_at) / Fold change /veh PRB3 (11715151_x_at) / RFU TUBB4B (11761932_at) / Fold change /veh TUBB4B (11761932_at) / RFU CAPN14 (11732068_a_at) / Fold change /veh CAPN14 (11732068_a_at) / RFU TMCC2 (11721928_a_at) / Fold change /veh TMCC2 (11721928_a_at) / RFU IRGQ (11745062_a_at) / Fold change /veh IRGQ (11745062_a_at) / RFU FAM174B (11720279_a_at) / Fold change /veh FAM174B (11720279_a_at) / RFU TMPRSS4 (11748680_a_at) / Fold change /veh TMPRSS4 (11748680_a_at) / RFU FAM212B (11763350_a_at) / Fold change /veh FAM212B (11763350_a_at) / RFU PLEKHG5 (11743358_a_at) / Fold change /veh PLEKHG5 (11743358_a_at) / RFU ZSCAN30 (11745921_a_at) / Fold change /veh ZSCAN30 (11745921_a_at) / RFU CMKLR1 (11741424_a_at) / Fold change /veh CMKLR1 (11741424_a_at) / RFU LOC101060620 /// MAPK8IP1 (11723275_at) / Fold change /veh LOC101060620 /// MAPK8IP1 (11723275_at) / RFU SPTSSB (11747773_x_at) / Fold change /veh SPTSSB (11747773_x_at) / RFU PRSS12 (11739890_at) / Fold change /veh PRSS12 (11739890_at) / RFU BIN1 (11741810_x_at) / Fold change /veh BIN1 (11741810_x_at) / RFU WNT11 (11732464_a_at) / Fold change /veh WNT11 (11732464_a_at) / RFU C10orf10 (11716521_a_at) / Fold change /veh C10orf10 (11716521_a_at) / RFU C5orf56 (11738089_at) / Fold change /veh C5orf56 (11738089_at) / RFU CYB561 (11721691_x_at) / Fold change /veh CYB561 (11721691_x_at) / RFU ANKRD19P (11752326_a_at) / Fold change /veh ANKRD19P (11752326_a_at) / RFU OR2T12 /// OR2T33 /// OR2T8 (11738714_s_at) / Fold change /veh OR2T12 /// OR2T33 /// OR2T8 (11738714_s_at) / RFU VCAN (11748164_a_at) / Fold change /veh VCAN (11748164_a_at) / RFU JSRP1 (11732532_at) / Fold change /veh JSRP1 (11732532_at) / RFU KRTAP10-11 (11738290_x_at) / Fold change /veh KRTAP10-11 (11738290_x_at) / RFU MYO3A (11730013_a_at) / Fold change /veh MYO3A (11730013_a_at) / RFU EBF3 (11725865_a_at) / Fold change /veh EBF3 (11725865_a_at) / RFU CAMK2N1 (11719241_x_at) / Fold change /veh CAMK2N1 (11719241_x_at) / RFU C5orf56 (11738088_a_at) / Fold change /veh C5orf56 (11738088_a_at) / RFU OLFML3 (11715873_a_at) / Fold change /veh OLFML3 (11715873_a_at) / RFU LOC100653217 /// NTM (11731650_a_at) / Fold change /veh LOC100653217 /// NTM (11731650_a_at) / RFU MAPK11 (11762145_a_at) / Fold change /veh MAPK11 (11762145_a_at) / RFU FIZ1 (11724087_x_at) / Fold change /veh FIZ1 (11724087_x_at) / RFU OASL (11726364_x_at) / Fold change /veh OASL (11726364_x_at) / RFU SOX15 (11748057_x_at) / Fold change /veh SOX15 (11748057_x_at) / RFU CD79A (11719716_a_at) / Fold change /veh CD79A (11719716_a_at) / RFU HIST1H1D (11736915_at) / Fold change /veh HIST1H1D (11736915_at) / RFU CASKIN2 (11723855_a_at) / Fold change /veh CASKIN2 (11723855_a_at) / RFU LOC730098 (11760151_x_at) / Fold change /veh LOC730098 (11760151_x_at) / RFU OR4N2 (11742367_at) / Fold change /veh OR4N2 (11742367_at) / RFU PRRT2 (11749266_a_at) / Fold change /veh PRRT2 (11749266_a_at) / RFU SNX32 (11753110_a_at) / Fold change /veh SNX32 (11753110_a_at) / RFU CDHR5 (11726645_a_at) / Fold change /veh CDHR5 (11726645_a_at) / RFU RCAN1 (11760418_a_at) / Fold change /veh RCAN1 (11760418_a_at) / RFU FAM167A (11723789_a_at) / Fold change /veh FAM167A (11723789_a_at) / RFU FAM26E (11764081_at) / Fold change /veh FAM26E (11764081_at) / RFU ISYNA1 (11749810_s_at) / Fold change /veh ISYNA1 (11749810_s_at) / RFU ACY1 (11761880_at) / Fold change /veh ACY1 (11761880_at) / RFU 11764098_at / Fold change /veh 11764098_at / RFU SAMD14 (11745864_x_at) / Fold change /veh SAMD14 (11745864_x_at) / RFU NPB (11741838_a_at) / Fold change /veh NPB (11741838_a_at) / RFU TMPRSS6 (11731388_a_at) / Fold change /veh TMPRSS6 (11731388_a_at) / RFU KRTAP10-2 (11738614_at) / Fold change /veh KRTAP10-2 (11738614_at) / RFU ARHGAP8 /// PRR5-ARHGAP8 (11727945_x_at) / Fold change /veh ARHGAP8 /// PRR5-ARHGAP8 (11727945_x_at) / RFU KRTAP5-7 /// NADSYN1 (11734609_at) / Fold change /veh KRTAP5-7 /// NADSYN1 (11734609_at) / RFU RASL12 (11751679_a_at) / Fold change /veh RASL12 (11751679_a_at) / RFU CDKN2B (11736163_a_at) / Fold change /veh CDKN2B (11736163_a_at) / RFU PRF1 (11729649_at) / Fold change /veh PRF1 (11729649_at) / RFU, ZNF638 /// ZNF638-IT1 / Fold change vs veh, ZNF638 /// ZNF638-IT1 / RFU, PANK3 / Fold change vs veh, PANK3 / RFU, SH3YL1 / Fold change vs veh, SH3YL1 / RFU, ZEB2 / Fold change vs veh, ZEB2 / RFU, NRIP1 / Fold change vs veh, NRIP1 / RFU, PTTG1IP / Fold change vs veh, PTTG1IP / RFU, CAPN2 / Fold change vs veh, CAPN2 / RFU, MED14 / Fold change vs veh, MED14 / RFU, SNORA58 / Fold change vs veh, SNORA58 / RFU, C1orf63 / Fold change vs veh, C1orf63 / RFU, LRRFIP1 / Fold change vs veh, LRRFIP1 / RFU, NDUFAF7 / Fold change vs veh, NDUFAF7 / RFU, SLC12A2 / Fold change vs veh, SLC12A2 / RFU, IBTK / Fold change vs veh, IBTK / RFU, ESF1 / Fold change vs veh, ESF1 / Fold change vs veh, TMEM50B / RFU, TAOK1 / Fold change vs veh, TAOK1 / RFU, ACBD3 / Fold change vs veh, ACBD3 / RFU, TMA16 / Fold change vs veh, TMA16 / RFU, RWDD3 / Fold change vs veh, RWDD3 / RFU, BCAT1 / Fold change vs veh, BCAT1 / RFU, EDEM3 / Fold change vs veh, EDEM3 / RFU, TMEM33 / Fold change vs veh, TMEM33 / RFU, WDR75 / Fold change vs veh, WDR75 / RFU, AHCTF1 / Fold change vs veh, AHCTF1 / RFU, TFRC / Fold change vs veh, TFRC / RFU, ZDHHC17 / Fold change vs veh, ZDHHC17 / RFU, NOM1 / Fold change vs veh, NOM1 / RFU, ARL8B / Fold change vs veh, ARL8B / RFU, ZBTB11 / Fold change vs veh, ZBTB11 / RFU, TAMM41 / Fold change vs veh, TAMM41 / RFU, KIAA1704 /// LOC100996395 / Fold change vs veh, KIAA1704 /// LOC100996395 / RFU, ING1 / Fold change vs veh, ING1 / RFU, TRMT61B / Fold change vs veh, TRMT61B / RFU, FUBP3 / Fold change vs veh, FUBP3 / RFU, TP53 / Fold change vs veh, TP53 / RFU, TNKS2 / Fold change vs veh, TNKS2 / RFU, ZFP14 / Fold change vs veh, ZFP14 / RFU, ACTR2 / Fold change vs veh, ACTR2 / RFU, PPP3R1 / Fold change vs veh, PPP3R1 / RFU, PIK3R1 / Fold change vs veh, PIK3R1 / RFU, HNRNPA1 / Fold change vs veh, HNRNPA1 / RFU, RNF170 / Fold change vs veh, RNF170 / RFU, ZNF28 / Fold change vs veh, ZNF28 / RFU, RNGTT / Fold change vs veh, RNGTT / RFU, OGT / Fold change vs veh, OGT / RFU, BRD1 / Fold change vs veh, BRD1 / RFU, MARS / Fold change vs veh, MARS / RFU, ZNF655 / Fold change vs veh, ZNF655 / RFU, FAHD1 / Fold change vs veh, FAHD1 / RFU, BDP1 / Fold change vs veh, BDP1 / RFU, LRRCC1 / Fold change vs veh, LRRCC1 / RFU, ARID1A / Fold change vs veh, ARID1A / RFU, ZNF146 / Fold change vs veh, ZNF146 / RFU, ZNF330 / Fold change vs veh, ZNF330 / RFU, GPN3 / Fold change vs veh, GPN3 / RFU, C9orf123 / Fold change vs veh, C9orf123 / RFU, N4BP2L2 / Fold change vs veh, N4BP2L2 / RFU, ARFIP1 / Fold change vs veh, ARFIP1 / RFU, FAM179B / Fold change vs veh, FAM179B / RFU, BCL10 / Fold change vs veh, BCL10 / RFU, UHRF1BP1L / Fold change vs veh, UHRF1BP1L / RFU, BET1 / Fold change vs veh, BET1 / RFU, CNOT2 / Fold change vs veh, CNOT2 / RFU, ZNF268 / Fold change vs veh, ZNF268 / Fold change vs veh, ZNF507 / RFU, DGCR2 / Fold change vs veh, DGCR2 / RFU, WDSUB1 / Fold change vs veh, WDSUB1 / Fold change vs veh, HSP90B1 /// MIR3652 / RFU, ADSS / Fold change vs veh, ADSS / RFU, GK / Fold change vs veh, GK / RFU, ZNF148 / Fold change vs veh, ZNF148 / RFU, TAF9 / Fold change vs veh, TAF9 / RFU, SLC1A5 / Fold change vs veh, SLC1A5 / RFU, SLMO2 / Fold change vs veh, SLMO2 / RFU, ABCC4 / Fold change vs veh, ABCC4 / RFU, LOC101060439 /// RAP1B / Fold change vs veh, LOC101060439 /// RAP1B / RFU, RFX7 / Fold change vs veh, RFX7 / RFU, GTPBP10 / Fold change vs veh, GTPBP10 / RFU, CNEP1R1 / Fold change vs veh, CNEP1R1 / RFU, BIVM-ERCC5 /// ERCC5 / Fold change vs veh, BIVM-ERCC5 /// ERCC5 / RFU, ILF3 / Fold change vs veh, ILF3 / RFU 11762660_at / Fold change /veh 11762660_at / RFU VCAN (11757783_s_at) / Fold change /veh VCAN (11757783_s_at) / RFU DDX43 (11728927_at) / Fold change /veh DDX43 (11728927_at) / RFU KRT8 (11758188_x_at) / Fold change /veh KRT8 (11758188_x_at) / RFU NKD1 (11759106_at) / Fold change /veh NKD1 (11759106_at) / RFU SRD5A1 (11742802_a_at) / Fold change /veh SRD5A1 (11742802_a_at) / RFU TPSAB1 /// TPSB2 (11721975_s_at) / Fold change /veh TPSAB1 /// TPSB2 (11721975_s_at) / RFU GSTM3 (11746129_a_at) / Fold change /veh GSTM3 (11746129_a_at) / RFU IL23R (11737362_x_at) / Fold change /veh IL23R (11737362_x_at) / RFU TMEM51 (11727254_a_at) / Fold change /veh TMEM51 (11727254_a_at) / RFU PIWIL2 (11732686_x_at) / Fold change /veh PIWIL2 (11732686_x_at) / RFU ORM1 (11744905_x_at) / Fold change /veh ORM1 (11744905_x_at) / RFU CCDC152 (11743942_at) / Fold change /veh CCDC152 (11743942_at) / RFU ECM1 (11717891_a_at) / Fold change /veh ECM1 (11717891_a_at) / RFU IL23R (11748794_a_at) / Fold change /veh IL23R (11748794_a_at) / RFU TNFAIP8L3 (11732012_x_at) / Fold change /veh TNFAIP8L3 (11732012_x_at) / RFU MBOAT4 (11741988_at) / Fold change /veh MBOAT4 (11741988_at) / RFU 11764193_at / Fold change /veh 11764193_at / RFU TMEM53 (11763286_at) / Fold change /veh TMEM53 (11763286_at) / RFU MAGEB2 (11727129_at) / Fold change /veh MAGEB2 (11727129_at) / RFU TMEM200A (11744735_a_at) / Fold change /veh TMEM200A (11744735_a_at) / RFU CCDC152 (11751479_a_at) / Fold change /veh CCDC152 (11751479_a_at) / RFU FAM211A (11726209_a_at) / Fold change /veh FAM211A (11726209_a_at) / RFU RGS16 (11746705_a_at) / Fold change /veh RGS16 (11746705_a_at) / RFU VCAN (11755009_s_at) / Fold change /veh VCAN (11755009_s_at) / RFU RHOB (11743442_s_at) / Fold change /veh RHOB (11743442_s_at) / RFU RGS16 (11720943_a_at) / Fold change /veh RGS16 (11720943_a_at) / RFU RGS16 (11720944_at) / Fold change /veh RGS16 (11720944_at) / RFU, VPS4B / Fold change vs veh, VPS4B / RFU, CREB1 / Fold change vs veh, CREB1 / RFU, DNAJC13 / Fold change vs veh, DNAJC13 / RFU, GNAQ / Fold change vs veh, GNAQ / RFU, CDK5R1 / Fold change vs veh, CDK5R1 / RFU, ZRANB3 / Fold change vs veh, ZRANB3 / RFU, CUL4A / Fold change vs veh, CUL4A / RFU, CCNY / Fold change vs veh, CCNY / RFU, UFL1 / Fold change vs veh, UFL1 / RFU, COG3 / Fold change vs veh, COG3 / RFU, DIAPH2 / Fold change vs veh, DIAPH2 / RFU, SKA2 / Fold change vs veh, SKA2 / RFU, AFF3 / Fold change vs veh, AFF3 / RFU, LMF1 / Fold change vs veh, LMF1 / RFU, IPO11 / Fold change vs veh, IPO11 / RFU, DFFB / Fold change vs veh, DFFB / RFU, FOXP1 / Fold change vs veh, FOXP1 / RFU, CARD8 / Fold change vs veh, CARD8 / RFU, STRN3 / Fold change vs veh, STRN3 / RFU, ADK / Fold change vs veh, ADK / RFU, RASSF2 / Fold change vs veh, RASSF2 / RFU, WIPF1 / Fold change vs veh, WIPF1 / RFU, LARP1B / Fold change vs veh, LARP1B / RFU, RASA1 / Fold change vs veh, RASA1 / RFU, RB1 / Fold change vs veh, RB1 / RFU, PPFIA1 / Fold change vs veh, PPFIA1 / RFU, MAT2A / Fold change vs veh, MAT2A / RFU, CCT5 / Fold change vs veh, CCT5 / RFU, WDR92 / Fold change vs veh, WDR92 / RFU, CUX1 / Fold change vs veh, CUX1 / RFU, TTC7A / Fold change vs veh, TTC7A / RFU, TMEM135 / Fold change vs veh, TMEM135 / RFU, DEPTOR / Fold change vs veh, DEPTOR / RFU, CPM / Fold change vs veh, CPM / RFU, DNAJB6 / Fold change vs veh, DNAJB6 / RFU, CACNA2D3 / Fold change vs veh, CACNA2D3 / RFU, DTX4 / Fold change vs veh, DTX4 / RFU, TFCP2 / Fold change vs veh, TFCP2 / RFU, GMCL1 /// GMCL1P1 / Fold change vs veh, GMCL1 /// GMCL1P1 / RFU, AEBP2 / Fold change vs veh, AEBP2 / RFU, SNHG1 /// SNORD22 /// SNORD25 /// SNORD26 /// SNORD27 /// SNORD28 /// SNORD29 /// SNORD31 / Fold change vs veh, SNHG1 /// SNORD22 /// SNORD25 /// SNORD26 /// SNORD27 /// SNORD28 /// SNORD29 /// SNORD31 / Fold change (Aza/veh), C12orf56 (ProbeSet 11735607_a_at) / Fold change (ACY-1035/veh), C12orf56 (ProbeSet 11735607_a_at) / Fold change (Aza/veh), FGFR1OP (ProbeSet 11751329_s_at) / Fold change (ACY-1035/veh), FGFR1OP (ProbeSet 11751329_s_at) / Fold change (Aza/veh), VPS36 (ProbeSet 11739960_a_at) / Fold change (ACY-1035/veh), VPS36 (ProbeSet 11739960_a_at) / RFU SYPL1 (11715823_x_at) / Fold change /veh SYPL1 (11715823_x_at) / RFU IGFBP7 (11715501_s_at) / Fold change /veh IGFBP7 (11715501_s_at) / RFU REEP3 (11722064_at) / Fold change /veh REEP3 (11722064_at) / RFU IGLL1 (11728026_x_at) / Fold change /veh IGLL1 (11728026_x_at): dose or concentration left out as unconfirmed", "conditions": "ProbeSet 11740011_at; LIST B", "data": [{"smiles": "Nc1ncn([C@@H]2O[C@H](CO)[C@@H](O)[C@H]2O)c(=O)n1", "note": "[azacitidine]", "values": [{"measurement": "RFU, ZFP14", "value": 67.74, "unit": "RFU"}]}]}
